Test results from patent publication US11420949B2, “Cystine diamide analogs for the prevention of cystine stone formation in cystinuria” (Rutgers, The State University of New Jersey, priority 2013, dated 2022).

Legend:
[1] = Fluorescence assay for inhibition of L-cystine crystal formation (aqueous solubility of L-cystine, OPA/NBC); format: physicochemical; details: for Ratio: improvement in potency over the control CDME; for fold increase in potency/activity as compared to CDME: at increasing the aqueous solubility of L-cystine
Description: As used herein, the EC2x's are the concentrations required of the candidate compounds to double the aqueous solubility of cystine and were determined to assess drug potency and potential dosing regimens for in vivo use. One of ordinary skill in the art is readily able to ascertain such information using commonly known methodologies.
Another aspect of the present invention is directed to the processes of determining the concentration of L-cystine using a fluorescence assay after OPA/NBC derivatization. In at least one embodiment with respect to this aspect of the invention, the concentration of the L-cystine was assessed by a fluorescence assay. Accordingly, the inventors developed a fluorescence-based assay using O-phthaldialdehyde (OPA) and N-Boc-cysteine (NBC) to accurately measure the concentration of L-cystine in aqueous solutions using a similar protocol we previously reported. OPA/NBC are popular reagents used for precolumn derivatization of amino acids in HPLC. This derivatization is fast and simple to operate. However, the reaction of OPA with the disulfide cystine and NBC yielded derivatives with weak fluorescence. The disulfide in cystine was reduced and then alkylated with iodoacetic acid to form S-carboxymethylcysteine, which yielded OPA/NBS derivatives with normal fluorescence. L-Cystine solution was thus used to construct a standard curve. L-Cystine first reacted with DTT for 10 min, followed by reaction with iodoacetic acid for 15 min, then reacted with OPA and NBC for 3 min. The final mixture was pipetted into 384-well plate and the fluorescence intensity was read at Ex 340 nm/Em 460 nm. A linear standard curve was obtained in the concentration range between 50 μM and 400 μM (see FIG. 3).
Formation of supersaturation solution—a supersaturated solution was formed by dissolving 21 mg of L-cystine in 30 mL of Millipore water (˜3 mM) under reflux at 100° C. for 20 min until the L-cystine was completely dissolved. The supersaturated solution was then allowed to cool slowly with stirring for 75 min.
Construction of standard curves—L-Cystine (5 mg) was dissolved in Millipore water (34.7 mL) to form a 0.6 mM solution as a stock solution. Then, L-cystine solution was diluted to 0.4, 0.3, 0.2, 0.1, 0.05 mM solution. 10 uL of each L-cystine solutions, 90 uL of 0.1 M dibasic sodium phosphate solution, and 10 uL of DTT solution (12.5 mM) were mixed at r.t. for 10 min, before the addition of 10 uL of iodoacetic acid (100 mM) and continued incubation at r.t. for an additional 15 min. This was then followed by the addition of 10 uL of OPA (100 mM in methanol) and 10 uL of NBC (100 mM in methanol). The derivatization was allowed to proceed for 3 min before 40 uL of the mixture was plated in a 384-well plate and read at Ex 340 nm/Em 460 nm. The standard curve was repeated for each set of experiments and used to calculate the concentration of L-cystine in each sample.
Determination of L-cystine concentration—All test compounds were dissolved in water to form 10 mM stock solution. 5 uL of each solution was added to 500 uL L-cystine supersaturated solution. The mixtures were allowed to stand at 25° C. for 72 h. At the end of incubation, the mixtures were centrifuged at 10,000 rpm for 4 min and the supernatants were diluted 2-fold for concentration measurement. Each diluted mixture (10 uL), 0.1 M dibasic sodium phosphate solution (90 uL), and 10 uL of DTT solution (12.5 mM) were mixed at r.t. for 10 min, before the addition of 10 uL of iodoacetic acid (100 mM) and continued incubation at r.t. for an additional 15 min. Derivatization was performed by the addition of 10 uL of OPA (100 mM in methanol) and 10 uL of NBC (100 mM in methanol) for 3 min. 40 uL of the derivatized mixture was plated in a 384-well plate and fluorescence was read at Ex 340 nm/Em 460 nm to derive the concentrations of the original mixtures. […]

[2] = prior report; cited from earlier work
[3] = AFM, prior report; cited from earlier work
rats = details: prior report; cited from earlier work
cell culture = cell culture experiments, prior report; cited from earlier work
[4] = Compound concentration and volume of mouse urine after 7 daily oral doses (LC-MS/MS); format: in vivo, mice; details: for oral bioavailability: concluded from urine concentrations after oral dosing
Description: This dose is equivalent to 29 μmol/kg (29 mg/m^2 assuming a body surface area of 0.007 m^2). To determine LH707/LH708 absorption and excretion, these compounds were administered daily for seven days and urine samples collected before and immediately after the last treatment.
(§1) Urine samples (0.15 to 1.1 ml) were collected by placing the mice in metabolic cages for four hours or longer and frozen at −20° C. The four-week treatment samples were analyzed for amino acids by ion exchange chromatography on a Biochrom analyzer (Biochrom US, Holliston, Mass.) and the amino acid levels normalized to nmol/mg creatinine. The seven-day treatment samples were analyzed for LH707 and LH708 by LC-MS (see below).
It was determined that the concentrations of LH707/LH708 in the mine samples collected using LC-MS/MS in positive MRM mode (LH707, 379.0→188.9; LH708, 203.1→101.3) on a Transcend LX2 system (Thermo Fisher, Waltham, Mass.) coupled to an API 4000 (AB Sciex, Framingham, Mass.). […] The gradient was performed at a flow rate of 750 μL/min as follows: 95% B for 90 s, 95 to 5% B in 42 s, 5% B for 30 s.

Slc3a1 knockout mice = test: In vivo activity in a genetic mouse model, four-week oral treatment (bladder stones, urine amino acids)
Description: Slc3a1 knockout mice in a mixed 129/C57BL6 background were used in the studies described here. Two-mouth old knockout male mice for LH707 or LH708 treatment were selected. […] Most male mice over age six months have bladder stones and some have kidney stones as well. Female knockout mice have crystalluria but no stones until age over 12 months. Mouse genotypes and gender were determined by PCR amplification of tail DNA. Based on previous observations, Slc3a1 heterozygotes have no apparent phenotype so they were used in place of wild-type mice as needed. Animal studies were conducted in accordance with Rutgers University IACUC policies.
LH707 dihydrochloride (MW 451.43) and LH708 tetrahydrochloride (MW 550.44) were prepared fresh daily (2.9 mM in water) and 200 μl was administered to Slc3a1 knockout male mice (body weight 20 g) by gavage daily for four weeks using a 20G disposable flexible plastic feeding needle with a soft tip (Model FTP-20-30, Instech Laboratories, Inc., Plymouth Meeting, Pa.).
This dose is equivalent to 29 μmol/kg (29 mg/m^2 assuming a body surface area of 0.007 m^2). […]
as §1
Mice were sacrificed after urine collection and the bladder and kidneys removed and placed in 10% formalin. […] This application was evaluated for the assessment of quantitative parameters such as bladder volume, stone volume, and stone number from the scanned 3D datasets.
After micro CT scanning, bladders were weighed and the stones removed, weighed, counted, and measured in the longest dimension (see FIG. 5). […]

[5] = concentration required to double the aqueous solubility of cystine, water, 25° C., 72 h
[6] = effective concentration required to double the solubility of L-cystine in water

Work on N[C@@H](CSSC[C@H](N)C(=O)NCCO)C(=O)NCCO [LH709, L-Cystine diethanolamide] yielded an EC2x [1, 5] of 2.02 mM and a Ratio [1] of 3.2.

In the case of COC(=O)[C@@H](N)CSSC[C@H](N)C(=O)OC [CDME, L-cystine dimethylester], the “concentration that almost completely inhibits the crystallization of L-cystine in water” value [2] is given as “above 2 mg/L”, the “growth velocity of six symmetry-equivalent {100} steps of L-cystine crystals” value [3] is given as “dramatically reduce” and the “dosage demonstrating adverse effects” value (rats) is given as “approximately 500 mg/kg per day”. The EC2x [1, 5] was 6.37 mM, the EC2x [1, 6] was 0.00353 mM and the Ratio [1] was 1.0. For the same compound, the “concentration causing loss of cell viability” value (cell culture) was “approximately 1 mM”.

With N[C@@H](CSSC[C@H](N)C(=O)N1CCOCC1)C(=O)N1CCOCC1 [LH707] the “fold increase in potency/activity as compared to CDME” value (from here on “fold increase in potency/activity”) ([1]; listed as CDMOR) was “about 7 fold”, the “fold increase in potency/activity” value ([1]; listed as VII) was 7.44 fold and the EC2x [1, 5] was 0.86 mM. The EC2x [1, 6] was 0.00086 mM, the Ratio [1] was 7.4 and the “concentrations at which inhibition of cystine crystallization in vitro occurs” value [1] was “submicromolar”. The “compound concentration in mouse urine” value ([4]; after 7 daily oral doses) was “micromolar concentrations” and the oral bioavailability [4] was “readily bioavailable”.

Compound N[C@@H](CSSC[C@H](N)C(=O)NC1CC1)C(=O)NC1CC1 [LH704, L-Cystine bis(cyclopropylamide)] has an EC2x [1, 5] of 3.53 mM and a Ratio [1] of 1.8.

For N[C@@H](CSSC[C@H](N)C(=O)N1CCCCC1)C(=O)N1CCCCC1 [LH706, L-Cystine bispiperidine], the EC2x [1, 5] was 1.59 mM and the Ratio [1] was 4.0.

For COC(=O)[C@@H](N)CSSC[C@H](N)C(=O)O [CME, L-cystine methylester], the “growth velocity of six symmetry-equivalent {100} steps of L-cystine crystals” value [3] is listed as “dramatically reduce”.

In the case of CN1CCN(C(=O)[C@@H](N)CSSC[C@H](N)C(=O)N2CCN(C)CC2)CC1 [LH708, L-Cystine bis(N′-methylpiperazide)], the “efficacy at inhibiting cystine stone formation” value (Slc3a1 knockout mice; Slc3a1 knockout male mice, gavage daily for four weeks, LH708 versus LH707) is reported as “better efficacy”, the “urine concentration of other amino acids (ornithine, lysine, arginine, proline, valine, leucine, phenylalanine)” value (Slc3a1 knockout mice; four-week treatment) is reported as “no significant changes” and the “concentration of cystine in mouse urine as compared to before treatment” value (Slc3a1 knockout mice; four-week treatment, paired t-test) is reported as “significantly increased”. For the same compound, the “fold increase in potency/activity” value ([1]; listed as CDNMP) was 24 fold, the “fold increase in potency/activity” value ([1]; listed as VIII) was 24.41 fold and the EC2x [1, 5] was 0.26 mM. The EC2x [1, 6] was 0.00026 mM, the Ratio [1] was 24.4 and the “concentrations at which inhibition of cystine crystallization in vitro occurs” value [1] was “submicromolar”. The “compound concentration in mouse urine” value ([4]; after 7 daily oral doses) was “micromolar concentrations”, the “compound concentration in urine of Slc3a1 knockout mice versus control or normal mice” value ([4]; after 7 daily oral doses, FIG. 7) was “significantly higher concentrations” and the oral bioavailability [4] was “readily bioavailable”.
